Where two headings read alike, the source gives them in different places.
Columns and labels:
Format in all cases: in vivo
Abutilon theophrasti = test: Greenhouse pre-emergence (PRE) herbicidal test on ABUTH; conditions: Abutilon theophrasti, pre-emergence, PRE; for pest or weed control at 2 g/ha: I-3 solo 2 gai/ha
How it was run: (§1)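 Seeds were sown per species in loamy sand with ~3.0% humus, treated pre-emergence and kept at 10-25° C or 20-35° C depending on species. Damage was scored at 20 days after treatment on a 0-100 scale (100 = no emergence or complete destruction of above-ground parts, 0 = no damage).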

Alopecurus myosuroides = test: Greenhouse pre-emergence (PRE) herbicidal test on ALOMY; conditions: Alopecurus myosuroides, pre-emergence
How it was run: as §1

Ambrosia artemisiifolia = test: Greenhouse pre-emergence (PRE) herbicidal test on AMBEL; conditions: Ambrosia artemisiifolia, pre-emergence
Commelina benghalensis = test: Greenhouse pre-emergence (PRE) herbicidal test on COMBE; conditions: Commelina benghalensis, pre-emergence; for inhibition at 4 g/ha: use rate 4 gai/ha
How it was run: as §1

Echinochloa crus-galli = test: Greenhouse pre-emergence (PRE) herbicidal test on ECHCG; conditions: Echinochloa crus-galli, pre-emergence, PRE
Galium aparine = test: Greenhouse pre-emergence (PRE) herbicidal test on GALAP; conditions: Galium aparine, pre-emergence; PRE; GALAP; use rate 2 gai/ha
How it was run: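 Seeds sown in loamy sand (~3.0% humus); compounds in water applied by fine nozzles directly after sowing, then pots irrigated and hooded until rooting. Plants held at 10-25° C or 20-35° C by species; damage scored 0-100 (100 = no emergence/complete destruction) 20 days after treatment.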

[1] = 480 h, PRE, use rate 2 gai/ha, 20 DAT, read-out: % activity
[2] = 480 h, PRE, use rate 8 gai/ha, 20 DAT, read-out: % activity

SMILES: COc1c(Cl)cc(F)c(F)c1Nc1nc(N)nc(C(C)(C)F)n1 [Compound I-3]
- pest or weed control at 2 g/ha (Abutilon theophrasti; 432 h, ABUTH, 18 DAT): 70%
- pest or weed control at 8 g/ha (Abutilon theophrasti; 480 h, 8 gai/ha, 20 DAT): 70%
- inhibition at 2 g/ha (Abutilon theophrasti; 480 h, ABUTH, 2 gai/ha, 20 DAT, read-out: % activity solo application): 25%
- inhibition at 8 g/ha (Abutilon theophrasti; 480 h, ABUTH, 8 gai/ha, 20 DAT, read-out: % activity solo application): 80%
- pest or weed control at 2 g/ha (Abutilon theophrasti; 480 h, ABUTH, 20 DAT): 10%
- inhibition at 2 g/ha (Abutilon theophrasti; 480 h, ABUTH, use rate 2 gai/ha, 20 DAT, read-out: solo application % activity): 25%
- inhibition at 8 g/ha (Abutilon theophrasti; 480 h, ABUTH, use rate 8 gai/ha, 20 DAT, read-out: % activity): 70%
- inhibition at 8 g/ha (Abutilon theophrasti; 480 h, ABUTH, use rate 8 gai/ha, 20 DAT, read-out: solo application % activity): 85%
- inhibition at 2 g/ha (Abutilon theophrasti; 480 h, use rate 2 gai/ha, 20 DAT, read-out: % activity): 10%
- inhibition at 2 g/ha (Abutilon theophrasti; ABUTH, use rate 2 gai/ha, read-out: % activity): 65%
- inhibition at 4 g/ha (Abutilon theophrasti; ABUTH, use rate 4 gai/ha): 65%
- pest or weed control at 2 g/ha (Alopecurus myosuroides; 480 h, PRE, 2 gai/ha, 20 DAT, read-out: % activity): 10%
- pest or weed control at 8 g/ha (Alopecurus myosuroides; 480 h, PRE, 8 gai/ha, 20 DAT): 70%
- inhibition at 2 g/ha (Alopecurus myosuroides; 480 h, PRE, ALOMY, 2 gai/ha, 20 DAT, read-out: % activity solo application): 5%
- inhibition at 8 g/ha (Alopecurus myosuroides; 480 h, PRE, ALOMY, 8 gai/ha, 20 DAT, read-out: % activity solo application): 90%
- inhibition at 8 g/ha (Alopecurus myosuroides; 480 h, PRE, ALOMY, use rate 8 gai/ha, 20 DAT, read-out: solo application % activity): 90%
- inhibition at 2 g/ha (Alopecurus myosuroides; [1]): 65%
- inhibition at 2 g/ha (Alopecurus myosuroides; ALOMY PRE, use rate 2 gai/ha, read-out: % activity): 25%
- inhibition at 4 g/ha (Alopecurus myosuroides; PRE, ALOMY, use rate 4 gai/ha): 90%
- inhibition at 2 g/ha (Ambrosia artemisiifolia; 240 h, PRE, use rate 2 gai/ha, 10 DAT, read-out: % activity): 10%
- inhibition at 8 g/ha (Ambrosia artemisiifolia; 240 h, PRE, use rate 8 gai/ha, 10 DAT, read-out: % activity): 65%
- inhibition at 2 g/ha (Ambrosia artemisiifolia; 480 h, AMBEL PRE, 20 DAT, use rate 2 gai/ha, read-out: % activity): 50%
- inhibition at 2 g/ha (Ambrosia artemisiifolia; 480 h, PRE, AMBEL, 2 gai/ha, 20 DAT, read-out: % activity solo application): 10%
- inhibition at 8 g/ha (Ambrosia artemisiifolia; 480 h, PRE, AMBEL, 8 gai/ha, 20 DAT, read-out: % activity solo application): 45%
- inhibition at 2 g/ha (Ambrosia artemisiifolia; 480 h, PRE, AMBEL, use rate 2 gai/ha, 20 DAT, read-out: solo application % activity): 10%
- inhibition at 8 g/ha (Ambrosia artemisiifolia; 480 h, PRE, AMBEL, use rate 8 gai/ha, 20 DAT, read-out: solo application % activity): 45%
- inhibition at 8 g/ha (Ambrosia artemisiifolia; [2]): 90%
- inhibition at 4 g/ha (Ambrosia artemisiifolia; PRE, AMBEL, use rate 4 gai/ha): 25%
- pest or weed control at 2 g/ha (Commelina benghalensis; 432 h, PRE, COMBE, I-3 solo 2 gai/ha, 18 DAT, read-out: % activity): 50%
- inhibition at 2 g/ha (Commelina benghalensis; 480 h, COMBE PRE, 20 DAT, use rate 2 gai/ha, read-out: % activity): 0%
- inhibition at 8 g/ha (Commelina benghalensis; 480 h, COMBE PRE, 20 DAT, use rate 8 gai/ha, read-out: % activity): 75%
- pest or weed control at 8 g/ha (Commelina benghalensis; 480 h, PRE, 8 gai/ha, 20 DAT): 75%
- inhibition at 2 g/ha (Commelina benghalensis; 480 h, PRE, COMBE, 2 gai/ha, 20 DAT, read-out: % activity solo application): 10%
- inhibition at 8 g/ha (Commelina benghalensis; 480 h, PRE, COMBE, 8 gai/ha, 20 DAT, read-out: % activity solo application): 10%
- inhibition at 2 g/ha (Commelina benghalensis; 480 h, PRE, COMBE, use rate 2 gai/ha, 20 DAT, read-out: solo application % activity): 10%
- inhibition at 4 g/ha (Commelina benghalensis; 480 h, PRE, COMBE, 20 DAT): 35%
- inhibition at 8 g/ha (Commelina benghalensis; 480 h, PRE, COMBE, use rate 8 gai/ha, 20 DAT, read-out: % activity): 70%
- inhibition at 8 g/ha (Commelina benghalensis; 480 h, PRE, COMBE, use rate 8 gai/ha, 20 DAT, read-out: solo application % activity): 10%
- inhibition at 2 g/ha (Commelina benghalensis; [1]): 10%
- inhibition at 8 g/ha (Commelina benghalensis; [2]): 35%
- inhibition at 8 g/ha (Commelina benghalensis; COMBE PRE, use rate 8 gai/ha, read-out: % activity): 60%
- inhibition at 2 g/ha (Commelina benghalensis; PRE, COMBE, use rate 2 gai/ha, read-out: % activity): 0%
- inhibition at 4 g/ha (Commelina benghalensis; PRE, COMBE): 25%
- inhibition at 8 g/ha (Commelina benghalensis; PRE, COMBE, use rate 8 gai/ha, read-out: % activity): 75%
- inhibition at 1 g/ha (Echinochloa crus-galli; 240 h, use rate 1 gai/ha, 10 DAT): 10%
- inhibition at 2 g/ha (Echinochloa crus-galli; 240 h, use rate 2 gai/ha, 10 DAT, read-out: % activity): 10%
- inhibition at 4 g/ha (Echinochloa crus-galli; 240 h, use rate 4 gai/ha, 10 DAT): 20%
- inhibition at 8 g/ha (Echinochloa crus-galli; 240 h, use rate 8 gai/ha, 10 DAT, read-out: % activity): 20%
- pest or weed control at 2 g/ha (Echinochloa crus-galli; 432 h, ECHCG, I-3 solo 2 gai/ha, 18 DAT): 25%
- inhibition at 2 g/ha (Echinochloa crus-galli; 480 h, ECHCG, 2 gai/ha, 20 DAT, read-out: % activity solo application): 5%
- inhibition at 8 g/ha (Echinochloa crus-galli; 480 h, ECHCG, 8 gai/ha, 20 DAT, read-out: % activity solo application): 95%
- inhibition at 2 g/ha (Echinochloa crus-galli; 480 h, ECHCG, use rate 2 gai/ha, 20 DAT, read-out: solo application % activity): 5%
- inhibition at 8 g/ha (Echinochloa crus-galli; 480 h, ECHCG, use rate 8 gai/ha, 20 DAT, read-out: solo application % activity): 95%
- inhibition at 2 g/ha (Galium aparine): 15%

Source: patent US20260007133A1, “HERBICIDAL COMPOSITION COMPRISING AZINE COMPOUNDS” (BASF SE, priority 2022, published 2026)
